Measured values: ChEMBL document CHEMBL1130488, “1,4-Diaryl-2-oxo-1,2-dihydro-quinoline-3-carboxylic acids as endothelin receptor antagonists” (Bioorg Med Chem Lett, 1997)
pIC50: −log10 of the molar value.

These compounds were tested against T1, Endothelin-1 receptor (Rattus norvegicus, UniProt P26684) (assay: Functional antagonism against ETA receptor in rat aortic rings expressed as pA2 value). Details: read-out: pA2 (converted).
T1 sequence (P26684 whole entry): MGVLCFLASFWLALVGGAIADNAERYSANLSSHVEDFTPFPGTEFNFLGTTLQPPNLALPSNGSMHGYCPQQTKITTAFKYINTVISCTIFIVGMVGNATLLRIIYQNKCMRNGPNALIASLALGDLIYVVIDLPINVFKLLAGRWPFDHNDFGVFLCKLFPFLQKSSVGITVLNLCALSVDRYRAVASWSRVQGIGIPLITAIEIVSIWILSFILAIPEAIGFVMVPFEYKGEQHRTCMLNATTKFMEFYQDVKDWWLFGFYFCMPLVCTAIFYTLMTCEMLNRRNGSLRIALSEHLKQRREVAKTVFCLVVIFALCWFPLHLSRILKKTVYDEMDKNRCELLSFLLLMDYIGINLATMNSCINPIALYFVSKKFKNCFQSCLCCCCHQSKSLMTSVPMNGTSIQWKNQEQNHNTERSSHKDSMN
In the case of `CCOc1ccc2c(c1)c(-c1ccc(OC)cc1)c(C(=O)O)c(=O)n2Cc1cc(OC)ccc1OC`, the Kb was 6.31 µM.
`CCOc1ccc2c(c1)c(-c1ccc3c(c1)OCO3)c(C(=O)O)n2Cc1ccc(OC)cc1` showed a Kb of 0.398 µM.

These compounds were tested against T1, Endothelin-1 receptor (assay: Inhibition of [125I]ET1 binding to rat aorta membranes(ETA)). Details: not given.
Assay type: cell membranes, Membrane
`O=C(O)c1c(-c2ccc3c(c2)OCO3)c2ccccc2n(Cc2ccc3c(c2)OCO3)c1=O` showed a pIC50 of 5.59.
For `COc1ccccc1Cn1c(=O)c(CC(=O)O)c(-c2ccc3c(c2)OCO3)c2ccccc21`, the pIC50 was less than 5.00.
Work on `CCOc1ccc2c(c1)c(-c1ccc(OC)cc1)c(C(=O)O)c(=O)n2Cc1ccccc1OC` yielded a pIC50 of 5.89.
Compound `CCOc1ccc2c(c1)c(-c1ccc(OC)cc1OC)c(C(=O)O)c(=O)n2Cc1ccccc1OC` has a pIC50 of 5.92.
With `CCOc1ccc2c(c1)c(-c1ccc(OC)cc1)c(C(=O)O)c(=O)n2Cc1cc(OC)ccc1OC` the pIC50 was 6.59.
`CCc1ccc2c(c1)c(-c1ccc3c(c1)OCO3)c(C(=O)O)c(=O)n2Cc1ccccc1OC` showed a pIC50 of 5.82.
Work on `COc1ccccc1Cn1c(=O)c(C(=O)O)c(-c2ccc3c(c2)OCO3)c2ccccc21` yielded a pIC50 of 5.70.
In the case of `COc1cccc(Cn2c(=O)c(C(=O)O)c(-c3ccc4c(c3)OCO4)c3ccccc32)c1`, the pIC50 was less than 5.00.
Work on `O=C(O)c1c(-c2ccc3c(c2)OCO3)c2ccccc2n(Cc2ccccc2)c1=O` yielded a pIC50 of less than 5.00.
With `CCOc1ccc2c(c1)c(-c1ccc3c(c1)OCO3)c(C(=O)O)c(=O)n2Cc1ccccc1OC` the pIC50 was 6.42.
For `CCOc1ccc2c(c1)c(-c1ccc3c(c1)OCO3)c(C(=O)O)n2Cc1ccc(OC)cc1`, the pIC50 was 3.89.
In the case of `COc1ccccc1Cn1c(=O)c(C(=O)O)c(-c2ccc3c(c2)OCO3)c2c(OC)c(OC)ccc21`, the pIC50 was 5.48.
`COc1ccc(Cn2c(=O)c(C(=O)O)c(-c3ccc4c(c3)OCO4)c3ccccc32)cc1` showed a pIC50 of 5.62.
